# Source: PMC6586855, “Orobol, an Enzyme-Convertible Product of Genistein, exerts Anti-Obesity Effects by Targeting Casein Kinase 1 Epsilon” (Scientific Reports, 2019)
# What was measured:
# [1] = molecular target: T1, MNK1 (Homo sapiens, UniProt Q9BUB5); assay: […]-ATP kinase assay, P81 filter binding; type: biochemical
# T1 construct: gene MKNK1; Reaction Biology kinase panel
# [2] = molecular target: T2, CK1ε (Homo sapiens, UniProt P49674); assay: pull-down on orobol-Sepharose 4B beads, immunoblot; type: binding; conditions: orobol coupled to beads; pH 7.5, 4 °C; competed by ATP
# T2 construct: gene CSNK1E; commercial active kinase; Reaction Biology panel for activity, SignalChem protein for pull-down
# [3] = molecular target: T3, CK1ε (Mus musculus, UniProt Q9JMK2); assay: pull-down from 3T3-L1 lysate on orobol-Sepharose 4B beads, immunoblot; type: biochemical; conditions: orobol coupled to beads; pH 7.5, 4 °C
# T3 construct: gene Csnk1e; endogenous protein in 3T3-L1 preadipocyte lysate, detected with anti-CK1ε antibody
# T3 sequence (Q9JMK2 1-416): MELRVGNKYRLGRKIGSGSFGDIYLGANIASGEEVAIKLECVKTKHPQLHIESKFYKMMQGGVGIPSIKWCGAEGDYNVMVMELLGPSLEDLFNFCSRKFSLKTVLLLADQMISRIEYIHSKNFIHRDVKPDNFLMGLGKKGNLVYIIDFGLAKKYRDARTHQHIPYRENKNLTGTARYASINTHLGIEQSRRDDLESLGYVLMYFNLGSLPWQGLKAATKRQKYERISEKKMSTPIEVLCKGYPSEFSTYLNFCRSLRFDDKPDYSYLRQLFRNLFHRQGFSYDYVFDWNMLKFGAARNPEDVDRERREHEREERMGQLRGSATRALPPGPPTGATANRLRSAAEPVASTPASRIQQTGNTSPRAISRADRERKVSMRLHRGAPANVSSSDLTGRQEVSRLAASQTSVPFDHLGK
# [4] = molecular target: T4, NEK6 (Homo sapiens, UniProt Q9HC98); assay: […]-ATP kinase assay, P81 filter binding; type: biochemical
# T4 construct: Reaction Biology kinase panel
# [5] = molecular target: T5, MUSK (Homo sapiens, UniProt O15146); assay: […]-ATP kinase assay, P81 filter binding; type: biochemical
# T5 construct: Reaction Biology kinase panel
# T5 sequence (O15146 517-869 limits assumed): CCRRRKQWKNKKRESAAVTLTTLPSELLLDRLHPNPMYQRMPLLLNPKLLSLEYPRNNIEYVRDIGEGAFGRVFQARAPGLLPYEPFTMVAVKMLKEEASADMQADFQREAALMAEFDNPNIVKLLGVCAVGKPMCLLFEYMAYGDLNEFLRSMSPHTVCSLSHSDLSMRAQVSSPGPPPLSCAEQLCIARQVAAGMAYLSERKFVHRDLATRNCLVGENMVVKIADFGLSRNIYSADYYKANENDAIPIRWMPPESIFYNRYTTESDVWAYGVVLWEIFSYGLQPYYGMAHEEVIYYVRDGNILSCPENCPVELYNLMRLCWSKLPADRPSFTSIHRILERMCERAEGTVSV
# [6] = molecular target: T6, KDR/VEGFR2 (Homo sapiens, UniProt P35968); assay: […]-ATP kinase assay, P81 filter binding; type: biochemical
# T6 construct: Reaction Biology kinase panel
# [7] = molecular target: T7, PI3Kα (Homo sapiens, UniProt P42336); assay: kinase inhibition assay; type: biochemical
# T7 construct: gene PIK3CA; commercial kinase; with Phosphatidylinositol 3-kinase regulatory subunit alpha
# From the text: kinase inhibition assay on PI3Kα
# [8] = molecular target: T8, PI3Kγ (Homo sapiens, UniProt P48736); assay: kinase inhibition assay; type: biochemical
# T8 construct: gene PIK3CG; commercial kinase
# From the text: kinase inhibition assay on PI3Kγ
# [9] = molecular target: T9, KHS/MAP4K5 (Homo sapiens, UniProt Q9Y4K4); assay: […]-ATP kinase assay, P81 filter binding; type: biochemical
# T9 construct: Reaction Biology kinase panel
# [10] = molecular target: T10, PI3Kβ (Homo sapiens, UniProt P42338); assay: kinase inhibition assay; type: biochemical
# T10 construct: gene PIK3CB; commercial kinase; with Phosphatidylinositol 3-kinase regulatory subunit alpha
# From the text: kinase inhibition assay on PI3Kβ
# [11] = molecular target: T11, PI3Kδ (Homo sapiens, UniProt O00329); assay: kinase inhibition assay; type: biochemical
# T11 construct: gene PIK3CD; commercial kinase; with Phosphatidylinositol 3-kinase regulatory subunit alpha
# From the text: kinase inhibition assay on PI3Kδ
# [12] = molecular target: T12, RON/MST1R (Homo sapiens, UniProt Q04912); assay: […]-ATP kinase assay, P81 filter binding; type: biochemical
# T12 construct: Reaction Biology kinase panel
# T12 sequence (Q04912 979-1400 limits assumed): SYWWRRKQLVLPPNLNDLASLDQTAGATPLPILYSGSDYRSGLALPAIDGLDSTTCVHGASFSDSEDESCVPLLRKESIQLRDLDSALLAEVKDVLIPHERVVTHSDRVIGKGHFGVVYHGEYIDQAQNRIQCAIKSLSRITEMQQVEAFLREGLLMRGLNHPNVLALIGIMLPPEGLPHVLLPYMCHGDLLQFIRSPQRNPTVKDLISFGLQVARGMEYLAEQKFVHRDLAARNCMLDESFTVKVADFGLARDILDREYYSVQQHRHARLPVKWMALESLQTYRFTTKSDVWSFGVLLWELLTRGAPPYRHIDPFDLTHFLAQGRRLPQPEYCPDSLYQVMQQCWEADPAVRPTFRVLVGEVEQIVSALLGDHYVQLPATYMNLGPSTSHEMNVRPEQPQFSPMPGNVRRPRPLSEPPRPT
# [13] = molecular target: T13, TNIK (Homo sapiens, UniProt Q9UKE5); assay: […]-ATP kinase assay, P81 filter binding; type: biochemical
# T13 construct: Reaction Biology kinase panel
# [14] = molecular target: T14, PBK/TOPK (Homo sapiens, UniProt Q96KB5); assay: […]-ATP kinase assay, P81 filter binding; type: biochemical
# T14 construct: Reaction Biology kinase panel
# T14 sequence (Q96KB5 1-322): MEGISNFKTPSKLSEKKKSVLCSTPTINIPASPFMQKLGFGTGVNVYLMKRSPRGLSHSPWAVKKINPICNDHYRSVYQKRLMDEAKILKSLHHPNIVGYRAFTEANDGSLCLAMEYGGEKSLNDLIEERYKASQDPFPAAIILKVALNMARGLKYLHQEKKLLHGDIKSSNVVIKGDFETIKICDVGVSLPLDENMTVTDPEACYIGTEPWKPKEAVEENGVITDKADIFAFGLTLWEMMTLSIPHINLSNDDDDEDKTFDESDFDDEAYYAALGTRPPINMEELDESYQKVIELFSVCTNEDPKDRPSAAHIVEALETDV
# [15] = molecular target: T2, CK1ε; assay: […]-ATP kinase assay, P81 filter binding; type: biochemical
# [16] = molecular target: T15, CDK5/p25 (Homo sapiens, UniProt Q00535); assay: […]-ATP kinase assay, P81 filter binding; type: biochemical
# T15 construct: Reaction Biology kinase panel; complex with p25, the C-terminal fragment of p35
# T2 sequence (P49674 whole entry): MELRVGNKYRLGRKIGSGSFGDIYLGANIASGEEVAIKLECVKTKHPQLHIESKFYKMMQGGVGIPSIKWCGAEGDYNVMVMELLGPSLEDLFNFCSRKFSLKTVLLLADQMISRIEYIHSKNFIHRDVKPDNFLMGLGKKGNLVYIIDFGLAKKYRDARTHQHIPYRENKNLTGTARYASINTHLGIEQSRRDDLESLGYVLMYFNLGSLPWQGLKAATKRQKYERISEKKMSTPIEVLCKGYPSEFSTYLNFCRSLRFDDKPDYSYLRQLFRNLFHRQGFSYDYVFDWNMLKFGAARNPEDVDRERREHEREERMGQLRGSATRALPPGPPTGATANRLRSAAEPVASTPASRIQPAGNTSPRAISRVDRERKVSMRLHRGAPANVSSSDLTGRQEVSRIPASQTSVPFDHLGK
# T8 sequence (P48736 whole entry): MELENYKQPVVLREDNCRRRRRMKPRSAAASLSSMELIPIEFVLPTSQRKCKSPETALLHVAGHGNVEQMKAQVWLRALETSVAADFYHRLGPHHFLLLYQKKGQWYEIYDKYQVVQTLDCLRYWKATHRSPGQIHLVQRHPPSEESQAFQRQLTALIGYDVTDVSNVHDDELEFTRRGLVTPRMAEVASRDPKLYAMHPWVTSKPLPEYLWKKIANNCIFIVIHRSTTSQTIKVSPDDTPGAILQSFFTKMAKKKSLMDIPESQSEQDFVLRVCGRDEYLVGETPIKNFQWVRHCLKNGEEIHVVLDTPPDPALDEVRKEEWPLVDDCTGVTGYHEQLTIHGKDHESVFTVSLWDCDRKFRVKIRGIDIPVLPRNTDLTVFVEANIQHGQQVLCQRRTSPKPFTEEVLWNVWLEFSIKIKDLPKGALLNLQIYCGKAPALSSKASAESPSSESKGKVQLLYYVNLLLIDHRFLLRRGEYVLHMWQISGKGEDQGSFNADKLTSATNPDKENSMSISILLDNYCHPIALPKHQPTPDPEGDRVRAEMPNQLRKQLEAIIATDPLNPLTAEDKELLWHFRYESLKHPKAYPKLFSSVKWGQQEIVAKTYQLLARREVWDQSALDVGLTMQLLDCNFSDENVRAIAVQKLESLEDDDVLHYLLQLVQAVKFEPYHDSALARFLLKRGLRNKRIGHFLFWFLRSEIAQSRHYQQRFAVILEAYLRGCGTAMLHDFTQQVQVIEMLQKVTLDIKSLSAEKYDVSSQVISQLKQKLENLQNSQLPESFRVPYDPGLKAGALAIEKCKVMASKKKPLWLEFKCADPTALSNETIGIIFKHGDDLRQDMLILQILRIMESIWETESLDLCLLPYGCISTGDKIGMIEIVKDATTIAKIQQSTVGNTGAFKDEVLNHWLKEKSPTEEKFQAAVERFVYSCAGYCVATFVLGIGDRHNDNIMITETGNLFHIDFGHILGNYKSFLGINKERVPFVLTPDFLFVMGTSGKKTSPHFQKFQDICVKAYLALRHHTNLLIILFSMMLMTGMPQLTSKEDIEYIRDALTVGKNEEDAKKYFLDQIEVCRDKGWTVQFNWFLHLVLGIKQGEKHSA
# T1 sequence (Q9BUB5 whole entry): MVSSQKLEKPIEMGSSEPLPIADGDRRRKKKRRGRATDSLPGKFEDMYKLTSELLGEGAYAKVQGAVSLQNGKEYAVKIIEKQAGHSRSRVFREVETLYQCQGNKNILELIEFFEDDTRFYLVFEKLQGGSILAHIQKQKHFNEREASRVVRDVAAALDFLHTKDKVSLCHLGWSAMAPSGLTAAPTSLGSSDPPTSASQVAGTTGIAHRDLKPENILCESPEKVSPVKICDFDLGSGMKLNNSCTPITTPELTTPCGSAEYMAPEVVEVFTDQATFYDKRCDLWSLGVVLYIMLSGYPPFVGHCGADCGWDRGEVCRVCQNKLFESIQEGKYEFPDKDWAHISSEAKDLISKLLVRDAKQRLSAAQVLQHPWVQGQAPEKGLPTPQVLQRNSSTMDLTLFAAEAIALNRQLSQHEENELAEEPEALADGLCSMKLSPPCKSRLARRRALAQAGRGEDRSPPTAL
# T4 sequence (Q9HC98 whole entry): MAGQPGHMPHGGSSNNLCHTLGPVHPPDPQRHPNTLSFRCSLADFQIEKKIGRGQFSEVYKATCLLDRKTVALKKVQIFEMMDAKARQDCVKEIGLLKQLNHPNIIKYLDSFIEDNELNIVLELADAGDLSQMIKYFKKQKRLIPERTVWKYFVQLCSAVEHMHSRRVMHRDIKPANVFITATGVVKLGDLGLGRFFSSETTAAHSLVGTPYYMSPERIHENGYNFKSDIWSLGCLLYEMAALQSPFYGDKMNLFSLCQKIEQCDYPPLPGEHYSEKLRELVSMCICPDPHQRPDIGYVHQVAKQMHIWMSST
# T11 sequence (O00329 whole entry): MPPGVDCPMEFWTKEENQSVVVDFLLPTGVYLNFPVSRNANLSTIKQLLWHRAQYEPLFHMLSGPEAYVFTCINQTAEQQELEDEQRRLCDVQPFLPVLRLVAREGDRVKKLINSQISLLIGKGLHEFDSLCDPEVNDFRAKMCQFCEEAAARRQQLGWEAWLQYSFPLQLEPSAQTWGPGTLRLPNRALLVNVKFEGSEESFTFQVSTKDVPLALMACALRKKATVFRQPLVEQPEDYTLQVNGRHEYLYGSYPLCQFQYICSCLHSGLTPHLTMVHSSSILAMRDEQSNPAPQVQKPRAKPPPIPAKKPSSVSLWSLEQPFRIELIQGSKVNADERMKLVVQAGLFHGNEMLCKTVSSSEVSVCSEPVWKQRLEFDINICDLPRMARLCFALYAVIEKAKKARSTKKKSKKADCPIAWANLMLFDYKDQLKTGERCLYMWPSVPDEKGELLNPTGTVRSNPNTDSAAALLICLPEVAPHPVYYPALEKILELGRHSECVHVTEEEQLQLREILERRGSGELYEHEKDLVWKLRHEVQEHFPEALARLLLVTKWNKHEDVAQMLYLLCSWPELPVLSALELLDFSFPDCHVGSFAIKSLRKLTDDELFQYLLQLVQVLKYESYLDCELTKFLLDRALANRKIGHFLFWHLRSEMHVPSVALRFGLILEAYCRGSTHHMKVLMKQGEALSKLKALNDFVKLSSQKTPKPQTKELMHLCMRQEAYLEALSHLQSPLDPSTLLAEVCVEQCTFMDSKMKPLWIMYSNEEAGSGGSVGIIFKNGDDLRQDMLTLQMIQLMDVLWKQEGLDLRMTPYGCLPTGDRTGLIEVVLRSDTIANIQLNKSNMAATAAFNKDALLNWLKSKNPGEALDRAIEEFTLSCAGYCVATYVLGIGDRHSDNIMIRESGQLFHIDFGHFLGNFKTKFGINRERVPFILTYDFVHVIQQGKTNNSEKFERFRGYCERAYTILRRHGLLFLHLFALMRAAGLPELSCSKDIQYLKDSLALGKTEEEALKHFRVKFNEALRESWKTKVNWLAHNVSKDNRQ
# T11 sequence (P27986 2-724 partner): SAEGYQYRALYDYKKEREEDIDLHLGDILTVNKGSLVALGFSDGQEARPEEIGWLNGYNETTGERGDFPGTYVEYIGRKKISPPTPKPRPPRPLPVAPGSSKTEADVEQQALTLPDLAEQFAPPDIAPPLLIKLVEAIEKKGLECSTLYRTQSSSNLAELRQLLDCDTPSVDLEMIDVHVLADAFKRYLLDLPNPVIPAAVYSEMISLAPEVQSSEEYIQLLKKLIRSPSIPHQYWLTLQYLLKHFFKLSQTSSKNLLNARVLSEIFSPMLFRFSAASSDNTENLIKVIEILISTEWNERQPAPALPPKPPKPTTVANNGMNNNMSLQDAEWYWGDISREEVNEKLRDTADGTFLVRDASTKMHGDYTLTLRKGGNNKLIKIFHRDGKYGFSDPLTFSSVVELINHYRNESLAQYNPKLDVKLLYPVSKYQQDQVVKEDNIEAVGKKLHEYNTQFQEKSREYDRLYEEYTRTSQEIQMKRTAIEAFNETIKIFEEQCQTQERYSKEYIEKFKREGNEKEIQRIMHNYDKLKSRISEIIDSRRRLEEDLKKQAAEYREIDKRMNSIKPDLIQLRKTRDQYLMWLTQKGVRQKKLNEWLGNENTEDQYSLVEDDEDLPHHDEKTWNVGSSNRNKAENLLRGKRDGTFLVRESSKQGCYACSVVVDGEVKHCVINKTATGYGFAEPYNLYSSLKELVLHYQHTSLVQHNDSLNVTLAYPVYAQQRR
# T6 sequence (P35968 789-1356 limits assumed): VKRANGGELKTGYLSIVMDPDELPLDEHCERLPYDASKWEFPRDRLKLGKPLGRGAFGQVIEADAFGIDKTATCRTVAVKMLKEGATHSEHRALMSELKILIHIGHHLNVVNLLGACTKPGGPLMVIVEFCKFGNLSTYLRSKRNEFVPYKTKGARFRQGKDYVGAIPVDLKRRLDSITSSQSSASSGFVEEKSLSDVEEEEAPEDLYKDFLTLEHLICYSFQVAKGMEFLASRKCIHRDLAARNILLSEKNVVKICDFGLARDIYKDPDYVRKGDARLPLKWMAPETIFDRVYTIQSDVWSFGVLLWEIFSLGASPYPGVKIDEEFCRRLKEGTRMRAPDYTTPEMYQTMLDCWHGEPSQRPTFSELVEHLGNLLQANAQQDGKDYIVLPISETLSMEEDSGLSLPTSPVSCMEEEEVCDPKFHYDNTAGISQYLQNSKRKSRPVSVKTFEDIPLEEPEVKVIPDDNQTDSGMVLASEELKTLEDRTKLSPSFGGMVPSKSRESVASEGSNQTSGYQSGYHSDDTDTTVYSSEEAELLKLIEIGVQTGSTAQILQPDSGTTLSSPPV
compound,measurement,setting,value
O=c1c(-c2ccc(O)c(O)c2)coc2cc(O)cc(O)c12 [orobol],IC50,[1],2.13 µM
same,"pull-down on orobol-Sepharose 4B beads, immunoblot",[2],"The CK1ε kinase bound to orobol–sepharose 4B beads, but not to control sepharose 4B beads"
same,"pull-down from 3T3-L1 lysate on orobol-Sepharose 4B beads, immunoblot",[3],Orobol directly interacts with CK1ε in 3T3-L1 cell lysates
same,activity at 1 µM,[4],79%
same,IC50,[5],1.48 µM
same,IC50,[6],4.45 µM
same,IC50,[7],3.46 µM
same,IC50,[8],4.76 µM
same,IC50,[9],1.42 µM
same,IC50,[10],5.44 µM
same,IC50,[11],5.27 µM
same,activity at 1 µM,[12],78%
same,IC50,[13],1.54 µM
same,IC50,[14],1.67 µM
same,IC50,[15],1.24 µM
same,activity at 1 µM,[16],78%
